Calls of active or inactive are those of the source. The calls are words filed in the database; no cut-off is given here.
Tests used:
[1] = tested on: Fusarium culmorum; test: Antifungal activity against Fusarium culmorum infected durum wheat assessed as reduction in deoxynivalenol content in crop; format: functional; set-up: scale not given: the % may be the effect or the level left
[2] = Toxicity in po dosed Rattus norvegicus (rat); format: organism-based; settings: in vivo
[3] = tested on: Fusarium graminearum; test: Growth inhibition of Fusarium graminearum isolate 137 at 10^-4 M after 14 days; format: functional; settings: isolate 137, 336 h, read-out: GI
[4] = tested on: Fusarium graminearum; test: Growth inhibition of Fusarium graminearum isolate 106 at 10^-4 M after 14 days; format: functional; settings: isolate 106, 336 h, read-out: GI
[5] = tested on: Fusarium graminearum; test: Growth inhibition of Fusarium graminearum isolate 102 at 10^-4 M after 14 days; format: functional; settings: isolate 102, 336 h, read-out: GI
[6] = tested on: Fusarium graminearum; test: Antifungal activity against Fusarium graminearum after 8 hr by microscopic analysis relative to prothioconazole; format: functional
[7] = tested on: Fusarium graminearum; test: Growth inhibition of Fusarium graminearum isolate 74B at 10^-4 M after 14 days; format: functional; settings: 336 h, read-out: GI
[8] = tested on: Fusarium graminearum; test: Growth inhibition of Fusarium graminearum isolate 123 at 10^-4 M after 14 days; format: functional; settings: isolate 123, 336 h, read-out: GI
[9] = tested on: Fusarium graminearum; test: Antifungal activity against Fusarium graminearum isolate 137 after 8 hr by microscopic analysis; format: functional, organism-based; settings: isolate 137, 8 h, pooled result: one value given for 5 cell lines, strains, targets or settings
[10] = tested on: Fusarium graminearum; test: Growth inhibition of Fusarium graminearum isolate 37 at 10^-4 M after 14 days; format: functional; settings: isolate 37, 336 h, read-out: GI
[11] = Aqueous solubility of the compound assessed per 100 g; format: physicochemical; settings: buffer
[12] = tested on: Fusarium graminearum; test: Growth inhibition of Fusarium graminearum isolate 4527b at 10^-4 M after 14 days; format: functional; settings: 336 h, read-out: GI
[13] = tested on: Rattus norvegicus; test: Toxicity in po dosed Rattus norvegicus (rat) relative to metconazole; format: organism-based; settings: in vivo
[14] = Selectivity ratio of relative toxicity against po dosed rat to relative efficacy against Gibberella zeae; format: organism-based; settings: in vivo
[15] = Aqueous solubility of the compound assessed per 100 g at pH 7; format: physicochemical; settings: buffer
[16] = tested on: Fusarium graminearum; test: Growth inhibition of Fusarium graminearum at >/= 0.001 M after 14 days; format: functional, organism-based

Question: With `Clc1ccc(C2(Cn3cncn3)CC(Br)CO2)c(Cl)c1` (stereo unspecified) [BROMUCONAZOLE] as the compound, how does the Activity [1] read?
Answer: 43%

Question: For `Fc1ccc([C@]2(Cn3cncn3)O[C@H]2c2ccccc2Cl)cc1` [EPOXICONAZOLE], which LD50 [2] is on record?
Answer: 3160 mg/kg

Question: And the inhibition of growth at 100 µM [3]?
Answer: 99.6%

Question: And the inhibition of growth at 100 µM [4]?
Answer: 95.4%

Question: What about the inhibition of growth at 100 µM [5] of the same compound?
Answer: 97.1%

Question: What about the “fold change (FC)” value [6] of the same compound?
Answer: 0

Question: What about the inhibition of growth at 100 µM [7] of the same compound?
Answer: 95.7%

Question: And the inhibition of growth at 100 µM [8]?
Answer: 95.9%

Question: And the EC50 [9]?
Answer: 10800 µM

Question: What about the inhibition of growth at 100 µM [10] of the same compound?
Answer: 98.7%

Question: What about the solubility [11] of the same compound?
Answer: 0.7 mg

Question: What about the inhibition of growth at 100 µM [12] of the same compound?
Answer: 98%

Question: And the “fold change (FC)” value [13]?
Answer: 0.19

Question: Which results are given for `CC1(C)CCC(Cc2ccc(Cl)cc2)C1(O)Cn1cncn1` (stereo unspecified) [METCONAZOLE]?
Answer: LD50 [2]: 660 mg/kg; fold change (FC) [6]: 0.27; EC50 [9]: 177 µM; selectivity ratio [14]: 0.27; solubility [15]: 3 mg

Question: With `CCCN(CCOc1c(Cl)cc(Cl)cc1Cl)C(=O)n1ccnc1` [PROCHLORAZ] as the compound, how does the Activity [1] read?
Answer: 43%

Question: What does the source list for `OC(Cc1ccccc1Cl)(Cn1nc[nH]c1=S)C1(Cl)CC1` (stereo unspecified) [PROTHIOCONAZOLE]?
Answer: LD50 [2]: 6200 mg/kg; EC50 [9]: 32 µM; fold change (FC) [13]: 0.1; selectivity ratio [14]: 10.3

Question: Which results are given for `CC(C)(C)C(O)(CCc1ccc(Cl)cc1)Cn1cncn1` (stereo unspecified) [TEBUCONAZOLE]?
Answer: LD50 [2]: 1700 mg/kg; fold change (FC) [6]: 0.15; growth inhibition (GI) [16]: Active; EC50 [9]: 327 µM; solubility [11]: 3.6 mg; fold change (FC) [13]: 0.35; selectivity ratio [14]: 0.44; Activity [1]: 43%

Reference: ChEMBL document CHEMBL3046744, “Comparison of the declining triazole sensitivity of Gibberella zeae and increased sensitivity achieved by advances in triazole fungicide development” (Crop Prot, 2007)
